Experimental data as given in paper PMC7180452, “Purine and Purine Isostere Derivatives of Ferrocene: An Evaluation of ADME, Antitumor and Electrochemical Properties” (Molecules, 2020).
“Also recorded” adds a separate entry of the source. Read-outs that look alike come from different tables or passages of the source.

Columns and labels:
[1] = test system: metastatic colorectal adenocarcinoma (SW620); test: In vitro antiproliferative activity, SW620; assay type: cell-based, human; settings: SW620 cells
Description: (§1) Antiproliferative activity of compounds 11a−11c, 12a−12c, 13a−13c, 14a−14c, 15a−15c, 16a, 23a−23c, 24a−24c, 25a−25c, 34a−34c and 35a−35c was evaluated in vitro on four human tumor cell lines (American Type Culture Collection, Manassas, VA, USA): metastatic colorectal adenocarcinoma (SW620), ductal pancreatic adenocarcinoma (CFPAC-1), hepatocellular carcinoma (HepG2) and cervical carcinoma (HeLa) as well as normal skin fibroblasts (HFF).

[2] = test system: ductal pancreatic adenocarcinoma (CFPAC-1); test: In vitro antiproliferative activity, CFPAC-1; assay type: cell-based, human; settings: CFPAC-1 cells
Description: as §1

[3] = test system: hepatocellular carcinoma (HepG2); test: In vitro antiproliferative activity, HepG2; assay type: cell-based, human; settings: HepG2 cells
Description: as §1

[4] = test system: cervical carcinoma (HeLa); test: In vitro antiproliferative activity, HeLa; assay type: cell-based, human; settings: HeLa cells
Description: as §1

[5] = test system: normal skin fibroblasts (HFF); test: Cytotoxicity on non-tumor cells, HFF; assay type: cell-based, human
Description: as §1

[6] = test system: MDCKII-hMDR1 cells; test: Permeability and P-gp substrate assessment in MDCKII-hMDR1 cell monolayer; assay type: in vitro ADME, canine; settings: for Permeability classification: MDCKII-hMDR1, in words; for Efflux Ratio (BA/AB) / Papp (AB) / Papp (BA): without P-gp inhibitor; for Papp (AB) / Papp (BA): 10 µM, 60 min
Description: The Madin-Darby canine kidney cells with overexpressed human multidrug-resistant gene (MDCKII-hMDR1) have been frequently used to study bidirectional transport of compounds and assess P-gp substrate potential. Apparent permeability (Papp) values were determined from the amount permeated through the MDCKII-hMDR1 cell monolayer in both the apical-basolateral (AB) and basolateral-apical (BA) direction.
MDCKII-hMDR1 cell monolayer was used for determination of permeability and P-gp substrate assessment. MDCKII-hMDR1 cells (Solvo Biotechnology, Szeged, Hungary) were grown in the controlled atmosphere (37 °C, 95% humidity, 5% CO2) in MDCK cell culture medium containing Dulbecco’s Modified Eagle Medium (DMEM) + 10% Fetal bovine serum (FBS, inactivated) + 1% glutamax-100 + 1% antibiotic/antimycotic + 1% of Non-essential amino acids Minimum Essential Medium (MEM NEAA). Cultures were split every 3–4 days using 0.05% Trypsin-EDTA. Cells were seeded 4 days prior to the experiment in concentration of 0.3 × 10^6 cells mL^−1 and cultured in CO2 incubator. On the experiment day, cell monolayers were washed with Dulbecco’s phosphate buffer saline (D-PBS) and equilibrated for 45 min in CO2 incubator in D-PBS containing 1% DMSO (1% v/v) with or without Elacridar (2 µM). Compounds, in final concentration of 10 µM, were prepared in transport medium containing Lucifer yellow (100 µM), with DMSO contentment of 1% (v/v) and in the presence and without Elacridar. Lucifer yellow calibration curve was prepared by serial dilution (12 points, with 100 µM as the highest point). Monolayer integrity was examined by fluorescent measurement on a Microplate reader Infinite F500 (Tecan) by using an excitation of 485 nm and emission of 530 nm. Experiment was started by applying the solutions containing test compounds to apical and basolateral side of the cell monolayer. Starting compound concentration (C0) was sampled at the start of the experiment and apical and basolateral compartments were sampled after incubation at 37 °C with gentle shaking for 60 min. Compound were tested in duplicate. Amprenavir was used as a control with low permeability and as a P-gp substrate without inhibitor presence, turning into a highly permeable compound with the inhibitor present.
Samples were analyzed on an ABSciex API 4000 Triple Quadrupole Mass Spectrometer (Sciex, Division of MDS Inc., Toronto, ON, Canada) coupled to a UHPLC Nexera X2 (Shimadzu, Kyoto, Japan). Samples (1 µL) were injected onto a reversed phase HPLC column Luna Omega Polar C18, 30 × 2.1 mm i.d., 1.6 µm particle size (Phenomenex) which was kept at 50 °C. Aqueous solution was 0.1% formic acid in deionized water and the organic mobile phase was […]. Flow rate was kept at 0.7 mL min^−1 for all measurements. Fast-gradient elution was as follows: 2% of organic mobile phase through 0.15 min, from 2 to 95% of organic mobile phase (0.15−0.7 min), 95% of organic mobile phase (0.7−1.1 min), from 95 to 2% of organic mobile phase (1.1−1.11 min), and re-equilibration with 98% of aqueous mobile phase (1.11−1.5 min). Positive ion mode with turbo spray, an ion source temperature of 550 °C and a dwell time of 75 ms were utilized for mass spectrometric detection. Quantitation was performed using multiple reaction monitoring (MRM) at the specific transition corresponding to the compound of interest. Warfarin was used as an internal standard. The ratios between compound and internal standard peak areas were used instead of real compound concentration. Apparent permeability coefficient, Papp (nm s^−1) values were calculated by using the following Equation (1):Papp [nm s^−1] = (dQ/dT) × (1/C0) × (1/A)(1) where: dQ/dT = permeability rate; C0 = initial concentration in donor compartment; A = surface area of the cell monolayer (0.7 cm^2). […]

[7] = Metabolic stability in mouse liver microsomes; assay type: in vitro ADME; settings: for t1/2: mouse liver microsomes, 1 µM; for In Vivo CLh (% LBF) / In Vivo CLh: mouse; for In Vivo CLh (% LBF): predicted, % of liver blood flow; for In Vivo CLh: predicted in vivo hepatic clearance
Description: (§2) Metabolic stability of compounds was assessed in human and mouse liver microsomes (Corning, Tewksbury, MA, USA). Compounds, in final concentration of 1 µM, were incubated in phosphate buffer (50 mM, pH 7.4) for 60 min at 37 °C together with liver microsomes and NADPH generating system (nicotinamide adenine dinucleotide phosphate (NADP, 0.5 mM), glucose-6-phosphate (G6P, 5 mM), glucose-6-phosphate dehydrogenase (1.5 U mL^−1) and magnesium chloride (0.5 mM)). Also, compounds were incubated without the presence of NADPH cofactor, as a buffer stability control. Metabolic activity of liver microsomes was verified by including testosterone and propranolol as positive controls, as well as caffeine as a negative control. Sampling was performed at six time points (0, 10, 20, 30, 45 and 60 min), followed by reaction termination by addition of acetonitrile/methanol mixture (2:1, v/v) containing dicofenac as internal standard. Samples were analyzed as previously described for samples from permeability assay. The in vitro half-life (t1/2) was calculated from the slope of the linear regression by plotting ln % remaining of parent compound against incubation time. In vitro intrinsic clearance, CLint was calculated from half-life using following Equation (3):(3) CLint [µL min^−1 mg^−1]=ln2/t1/2×mL per incubation/mg protein per incubation where 52.5 mg protein/g liver is used as a constant.
(§3) Predicted in vivo hepatic clearance, in vivo CLh was calculated as follows:(4) in vivo CLh [mL min^−1 kg^−1]=CLint×(mg protein/g liver)×Q×(LW/BW) /Q+(CLint×(mg protein/g liver)×(LW/BW)) where: LW/BW = liver weight/body weight [g kg^−1]; 25.7 (human), 87.5 (mouse); Q = LBF = liver blood flow [mL min^−1 kg^−1]; 21/1.26 (human), 131/7.86 (mouse).
(§4) Predicted in vivo hepatic clearance can be expressed as %LBF and calculated as follows:(5) in vivo CLh [%LBF]=in vivo CLh/LBF×100

[8] = Metabolic stability in human liver microsomes; assay type: in vitro ADME; settings: for t1/2: 1 µM; for In Vivo CLh (% LBF) / In Vivo CLh: human; for In Vivo CLh (% LBF): predicted, % of liver blood flow; for In Vivo CLh: predicted in vivo hepatic clearance
Description: as §2, §3, §4

[9] = Turbidimetric kinetic solubility assay; settings: for Kinetic Solubility: PBS, 1% DMSO, 37 °C, 2 h, estimated range
[10] = Chrom logD determination (fast-gradient HPLC); settings: pH 7.4
[11] = pH 7.4

SMILES	IC50 [1]	IC50 [2]	IC50 [3]	IC50 [4]	IC50 [5]	Permeability classification [6]	Efflux Ratio (BA/AB) [6]	Papp (AB) [6]	Papp (BA) [6]	t1/2 [7]	In Vivo CLh (% LBF) [7]	t1/2 ([8]; human liver microsomes)	In Vivo CLh (% LBF) [8]	Kinetic Solubility [9]	Chrom logD [10]	Chrom logD [11]	In Vivo CLh [7]	Metabolic stability classification ([8]; human liver microsomes, in words)	In Vivo CLh [8]	Solubility classification ([9]; kinetic solubility, in words)
Clc1ncnc2c1ccn2Cc1cn(C[c-]2cccc2)nn1.[Fe+2].c1cc[cH-]c1 [Compound 11a, 4-Chloro-7-[1-(1-ferrocenymethyl-1,2,3-triazol-4-yl)methyl]-7H-pyrrolo[2,3-d]pyrimidine]	31.6 ± 0.84 µM	32.9 ± 2.46 µM	42 ± 5.93 µM	38.2 ± 2.3 µM	8.57 ± 1.95 µM	moderate to high AB permeability	2.2	8.4 ×10⁻⁶ cm/s	18 ×10⁻⁶ cm/s	4.4 min	98 % LBF	7.8 min	90 % LBF	<1 µM	5.62	–	–	–	–	–
[Fe+2].c1cc[cH-]c1.c1ccc2c(c1)ccn2Cc1cn(C[c-]2cccc2)nn1 [Compound 24a, 1-[1-(1-Ferrocenylmethyl-1,2,3-triazol-4-yl)methyl]-1H-indole]	62 ± 8.79 µM	78 ± 6.61 µM	53.6 ± 5.05 µM	68.7 ± 2.91 µM	16.7 ± 8.61 µM	–	–	–	–	–	–	–	–	–	–	>6.57	–	–	–	–
Clc1ncnc2ncn(Cc3cn(C[c-]4cccc4)nn3)c12.[Fe+2].c1cc[cH-]c1 [Compound 15a, 6-Chloro-7-[1-(1-ferrocenymethyl-1,2,3-triazol-4-yl)methyl]-7H-purine]	27.2 ± 5.3 µM	34.4 ± 0.43 µM	36 ± 1.81 µM	28.6 ± 8.28 µM	13.8 ± 4.17 µM	moderate AB permeability; also recorded: good permeability	7.0	4.8 ×10⁻⁶ cm/s	33.5 ×10⁻⁶ cm/s	8.8 min	97 % LBF	51.9 min	58 % LBF	>100 µM	3.82	–	24.8 mL/min/kg	moderate stability	15.0 mL/min/kg	high solubility
CC([c-]1cccc1)n1cc(Cn2ccc3ccccc32)nn1.[Fe+2].c1cc[cH-]c1 (centres unmarked) [Compound 24b, 1-[1-(1-Ferrocenyl-1-methylmethyl-1,2,3-triazol-4-yl)methyl]-1H-indole]	> 100 µM	87.6 ± 1.79 µM	> 100 µM	89.6 ± 7.64 µM	> 100 µM	–	–	–	–	–	–	–	–	–	–	>6.57	–	–	–	–
[Fe+2].c1cc[cH-]c1.c1ccc2c(c1)ncn2Cc1cn(-[c-]2cccc2)nn1 [Compound 23c, 1-[1-(1-Ferrocenyl-1,2,3-triazol-4-yl)methyl]-1H-benzimidazole]	> 100 µM	> 100 µM	> 100 µM	> 100 µM	> 100 µM	–	–	–	–	–	–	–	–	–	–	4.45	–	–	–	–
CC([c-]1cccc1)n1cc(Cn2ccc3cc(I)ccc32)nn1.[Fe+2].c1cc[cH-]c1 (centres unmarked) [Compound 25b, 5-Iodo-1-[1-(1-ferrocenyl-1-methylmethyl-1,2,3-triazol-4-yl)methyl]-1H-indole]	> 100 µM	> 100 µM	> 100 µM	> 100 µM	> 100 µM	–	–	–	–	–	–	–	–	–	–	>6.57	–	–	–	–
CC([c-]1cccc1)n1cc(Cn2ccc3c(Cl)ncnc32)nn1.[Fe+2].c1cc[cH-]c1 (centres unmarked) [Compound 11b, 4-Chloro-7-[1-(1-ferrocenyl-1-methylmethyl-1,2,3-triazol-4-yl)methyl]-7H-pyrrolo[2,3-d] pyrimidine]	32 ± 0.34 µM	31.3 ± 4.51 µM	34.5 ± 1.36 µM	31.4 ± 1.04 µM	8.88 ± 3.46 µM	high permeability	1.5	11.8 ×10⁻⁶ cm/s	17.4 ×10⁻⁶ cm/s	–	100 % LBF	2.3 min	97 % LBF	3 to 10 µM	5.94	–	25.7 mL/min/kg	–	24.9 mL/min/kg	–
CC([c-]1cccc1)n1cc(Cn2cnc3ccccc32)nn1.[Fe+2].c1cc[cH-]c1 (centres unmarked) [Compound 23b, 1-[1-(1-Ferrocenyl-1-methylmethyl-1,2,3-triazol-4-yl)methyl]-1H-benzimidazole]	> 100 µM	68 ± 13.7 µM	83.6 ± 8.61 µM	89.6 ± 13.7 µM	31.8 ± 9.81 µM	–	–	–	–	–	–	–	–	–	–	4.84	–	–	–	–
[Fe+2].c1cc[cH-]c1.c1ccc2c(c1)ncn2Cc1cn(C[c-]2cccc2)nn1 [Compound 23a, 1-[1-(1-Ferrocenylmethyl-1,2,3-triazol-4-yl)methyl]-1H-benzimidazole]	97 ± 13.6 µM	64.6 ± 12.2 µM	59.9 ± 10.9 µM	> 100 µM	23.8 ± 3.32 µM	–	–	–	–	–	–	–	–	–	–	4.56	–	–	–	–
Ic1ccc2c(ccn2Cc2cn(-[c-]3cccc3)nn2)c1.[Fe+2].c1cc[cH-]c1 [Compound 25c, 5-Iodo-1-[1-(1-ferrocenyl-1,2,3-triazol-4-yl)methyl]-1H-indole]	> 100 µM	> 100 µM	71.8 ± 3.44 µM	79.4 ± 1.82 µM	4.75 ± 1.7 µM	–	–	–	–	–	–	–	–	–	–	>6.57	–	–	–	–
